Patent US3984440A, “Polyene compounds” (Hoffmann-La Roche Inc., priority 1973, dated 1976)

What was measured:
[1] = acute toxicity after intraperitoneal administration in rape oil; details: mouse, in vivo, ip
[2] = tested on: papillomas induced with dimethyl-benzanthracene and croton oil; assay: papilloma test: regression of tumors induced with dimethyl-benzanthracene and croton oil; format: in vivo; details: mice, intraperitoneal, 400mg/kg/week, within two weeks
Experimental: The polyene compounds of formula I are useful in the topical and systemic prophylaxis and treatment of benignant and malignant neoplasias and premalignant lesions. The tumor-inhibiting activity of the polyene compounds of the invention is significant. […] The diameter of such papillomas in mice decreased by 55% within two weeks upon intraperitoneal administration of 400mg/kg/week of 9-(2,2,5,7,8-pentamethyl-chroman-6-yl)-3,7-dimethyl-nona-2,4,6,8-tetraen-1-oic acid.

Question: Which results are given for `CC(/C=C/c1c(C)c(C)c2c(c1C)CCC(C)(C)O2)=C\C=C\C(C)=C\C(=O)O` [9-(2,2,5,7,8-pentamethyl-chroman-6-yl)-3,7-dimethyl-nona-2,4,6,8-tetraen-1-oic acid]?
Answer: LD50 [1]: 950 mg/kg; LD50 at 24 h [1]: > 4000 mg/kg; LD50 at 240 h [1]: 950 mg/kg; LD50 at 480 h [1]: 950 mg/kg; decrease of diameter of papillomas [2]: 55%
